From patent US20040138104A1, “Peptides” (priority 2003, published 2004) come the findings set out here.

Where two headings read alike, the source gives them in different places.

The target in one assay is YopH (Yersinia pestis, UniProt O68720). As to the kind of experiment: biochemical.
Another assay deals with T1, PTB1B (Homo sapiens, UniProt P18031).
T1 sequence (P18031 1-435): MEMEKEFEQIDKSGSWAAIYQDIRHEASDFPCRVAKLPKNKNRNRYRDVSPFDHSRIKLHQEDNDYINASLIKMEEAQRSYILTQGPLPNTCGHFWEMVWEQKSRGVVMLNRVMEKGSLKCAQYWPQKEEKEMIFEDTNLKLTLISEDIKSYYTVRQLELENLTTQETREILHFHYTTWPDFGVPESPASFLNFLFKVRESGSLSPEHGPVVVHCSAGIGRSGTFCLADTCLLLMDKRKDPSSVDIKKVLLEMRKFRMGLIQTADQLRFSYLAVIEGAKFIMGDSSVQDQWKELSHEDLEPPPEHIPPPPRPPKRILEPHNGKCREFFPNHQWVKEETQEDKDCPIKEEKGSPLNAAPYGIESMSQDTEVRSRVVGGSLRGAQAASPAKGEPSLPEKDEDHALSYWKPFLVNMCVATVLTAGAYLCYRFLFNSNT
It counts as biochemical. To be noted: read-out: IC50 Values in μM Against Various Enzymes: PTB1B.

The mark [1] stands for this setting: read-out: IC50 Values in μM Against Various Enzymes: YopH.

YopH, sequence (O68720 1-468): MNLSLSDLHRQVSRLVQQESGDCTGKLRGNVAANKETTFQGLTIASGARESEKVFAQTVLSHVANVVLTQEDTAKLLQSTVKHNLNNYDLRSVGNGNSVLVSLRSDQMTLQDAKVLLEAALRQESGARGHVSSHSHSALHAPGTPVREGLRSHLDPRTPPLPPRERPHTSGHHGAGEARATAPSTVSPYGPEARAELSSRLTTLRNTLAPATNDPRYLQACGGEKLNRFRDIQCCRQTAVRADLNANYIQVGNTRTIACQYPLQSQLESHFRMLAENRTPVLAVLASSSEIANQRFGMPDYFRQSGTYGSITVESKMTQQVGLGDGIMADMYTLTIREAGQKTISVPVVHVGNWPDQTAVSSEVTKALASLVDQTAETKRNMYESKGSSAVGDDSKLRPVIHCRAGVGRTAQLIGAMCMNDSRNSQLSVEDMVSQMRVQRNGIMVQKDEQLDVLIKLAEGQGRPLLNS

The IC50 is the concentration that gives 50% inhibition. As for `CC(C)C[C@H](NC(=O)[C@H](Cc1ccc(OCC(=O)O)cc1)NC(=O)[C@H](CCC(=O)OCc1ccccc1)NC(=O)OCc1ccccc1)C(N)=O` [TB 39], the IC50 at YopH (setting [1]) is 119 ± 14 µM; at PTB1B, 72 ± 14 µM.
On to `CC(C)C[C@H](NC(=O)[C@H](Cc1ccc(OCC(=O)O)c(OCC(=O)O)c1)NC(=O)[C@H](CCC(=O)OCc1ccccc1)NC(=O)OCC1c2ccccc2-c2ccccc21)C(N)=O` [TB 29], for which the figures for the half-inhibitory concentration (IC50) on YopH (setting [1]) and on PTB1B were 19.4 ± 3.3 µM and 19.4 ± 3.6 µM, respectively.
For the molecule `CC(C)C[C@H](NC(=O)[C@H](Cc1ccc(OCC(=O)O)cc1)NC(=O)[C@H](CCC(=O)OCc1ccccc1)NC(=O)OCCc1ccccc1)C(N)=O` [TB 40], the IC50 on YopH was determined as 80 ± 8.5 µM.
Consider `CC(C)C[C@H](NC(=O)[C@H](Cc1ccc(OCC(=O)O)cc1)NC(=O)[C@H](CCC(=O)OCc1ccccc1)NC(=O)OCC1c2ccccc2-c2ccccc21)C(N)=O` [TB 26], for which the IC50 was 2.8 ± 1.1 µM at YopH (setting [1]) and 4.6 ± 2 µM at PTB1B.
Take `CC(C)C[C@H](NC(=O)[C@H](Cc1ccc(C(F)(C(=O)O)C(=O)O)cc1)NC(=O)[C@H](CCC(=O)OCc1ccccc1)NC(=O)OCC1c2ccccc2-c2ccccc21)C(N)=O` [TB 34]: the IC50 on YopH was 3 ± 0.7 µM.
